Laboratory results from PMC5997408 (Chemical Research in Toxicology, 2017).

Columns and labels:
NQO2 [1] = molecular target: T1, NQO2 (Homo sapiens, UniProt P16083); experiment: Enzyme kinetics of DCPIP reduction by NQO2; assay type: biochemical; conditions: 50 nM NQO2, 100 µM BNAH
T1 sequence (P16083 1-231): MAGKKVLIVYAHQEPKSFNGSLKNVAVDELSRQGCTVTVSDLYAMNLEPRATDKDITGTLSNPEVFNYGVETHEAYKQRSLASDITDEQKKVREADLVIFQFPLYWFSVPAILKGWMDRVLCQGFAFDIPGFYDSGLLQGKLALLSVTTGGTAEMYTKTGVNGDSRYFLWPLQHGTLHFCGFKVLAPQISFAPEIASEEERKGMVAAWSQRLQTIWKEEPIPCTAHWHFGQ

NQO2 [2] = molecular target: T1, NQO2; experiment: Inhibition of recombinant NQO2, menadione as substrate with BNAH; assay type: biochemical
NQO1 = NQO1 (Homo sapiens, UniProt P15559); experiment: Inhibition of recombinant NQO1, DCPIP reduction; assay type: biochemical
NQO1, sequence (P15559 whole entry): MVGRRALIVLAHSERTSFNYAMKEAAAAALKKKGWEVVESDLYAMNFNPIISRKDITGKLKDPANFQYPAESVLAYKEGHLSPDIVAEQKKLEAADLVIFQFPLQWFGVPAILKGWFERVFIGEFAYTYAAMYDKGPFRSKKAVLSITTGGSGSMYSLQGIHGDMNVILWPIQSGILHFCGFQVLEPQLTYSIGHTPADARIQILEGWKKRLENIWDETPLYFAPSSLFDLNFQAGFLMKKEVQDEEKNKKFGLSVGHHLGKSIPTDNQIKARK

CYP = conditions: up to 25 μM of tacrine, all four microsomal-activated drugs (data not shown)
NQO2 [3] = molecular target: T1, NQO2; experiment: Inhibition of recombinant NQO2, MTT reduction with BNAH; assay type: biochemical
NQO2 [4] = molecular target: T1, NQO2; conditions: 0.25 μM NQO2, tacrine 0, 5, 10, or 20 μM, 50 μM quinone imine
[5] = cited from earlier work
NQO2 [6] = molecular target: T1, NQO2; experiment: Inhibition of recombinant NQO2, DCPIP reduction with BNAH; assay type: biochemical

SMILES: O=C1C(Cl)=CC(=Nc2ccc(O)cc2)C=C1Cl [DCPIP, 2,6-dichlorophenolindophenol]
- Km (NQO2 [1]): 25 µM

SMILES: Cc1cccc(Nc2ccccc2C(=O)O)c1C [mefenamic acid]
- Ki (NQO2 [2]): 66 µM
- Ki (NQO1): 40 µM

SMILES: O=C(O)Cc1ccccc1Nc1c(Cl)cccc1Cl [diclofenac]
- Ki (NQO1): 13 µM

SMILES: Nc1c2c(nc3ccccc13)CCCC2 [tacrine]
- effect on CYP metabolism (CYP): no effect
- Ki (NQO2 [3]): 15 ± 1 µM
- inhibition of NQO2-mediated reduction of synthetic amodiaquine quinone imine (NQO2 [4]): concentration-dependent inhibition
- Ki (NQO1): 193 ± 1 µM
- plasma concentration of tacrine in humans [5]: around 0.04 μM
- Ki (NQO2 [6]; Ki value, range over DCPIP and MTT as substrate): 3 to 15 µM
- Ki (NQO2 [6]; Ki, recombinant NQO2, substrate DCPIP (25 μM), 100 μM BNAH, mean ± SD (n = 3)): 3 ± 1 µM
- Ki fold lower than found for NQO2 inhibition by resveratrol (NQO2 [6]; substrate DCPIP): 9 fold
- Ki for NQO2 fold lower compared to the Ki for NQO1 (NQO2 [6]; substrate DCPIP): 64 fold

SMILES: CC(=O)Nc1ccc(O)cc1 [Acetaminophen, acetaminophen]
- inhibition of NQO2 activity (NQO2 [2]; up to 1 mM): did not inhibit
- inhibition of NQO1 activity (NQO1; up to 1 mM): did not inhibit
